# Results from PMC6272295, “In Vitro Neuroprotective Activities of Compounds from Angelica shikokiana Makino” (Molecules, 2015).
# Read-outs that look alike come from different tables or passages of the source.
# Assays:
# [1] = target: T1, AChE from Electrophorus electricus (Electrophorus electricus, UniProt O42275); assay: biochemical; details: Ellman's method; read-out: IC50 in the AChEI assay
# T1 construct: purchased Sigma (St. Louis, MO, USA)
# Experimental: AChEI activity was measured using Ellman’s method. AChE hydrolyzes the substrate ACTI into acetate and thiocholine. In a neutral and alkaline medium; thiocholine reacts with DTNB to give yellow colored 2-nitro-5-thiobenzoate, which can be detected spectrophotometrically at 405 nm. Briefly, in a 96-well plate, 25 µL of 15 mM ACTI, 125 µL of 3 mM DTNB in buffer B (50 mM Tris HCl, pH = 8, 0.1 M NaCl, 0.02 M MgCl2·6H2O), 50 µL of buffer A (50 mM Tris-HCl, PH 8, 0.1% BSA) and 25 µL of tested sample (dissolved in 25% DMSO) were mixed, and the absorbance was measured using a microplate reader (Biotek, Winooski, VT, USA) at 405 nm every 16 s ten times. Then, 25 µL of AChE (0.25 U/mL in buffer A) was added and the absorbance was measured ten times every 16 s. A solution of 25% DMSO was used as a negative control. Absorbance was plotted against time and enzyme activity was calculated from the slope of the line so obtained and expressed as a percentage compared to an assay using a buffer without any inhibitor. Fractions were tested at 400 µg/mL. To avoid any increase in absorbance due to the color of the compounds or spontaneous hydrolysis of the substrate, the absorbance before addition of the enzyme was subtracted from the absorbance after adding the enzyme.
# (§1) IC50 values of isolated compounds in AChEI and scavenging of hydroxyl radical assays were calculated using Probit Analysis (SPSS Version 16.0 for Windows, SPSS Inc., Chicago, IL, USA) for five different concentrations in three independent experiments. Cell viability was expressed as a percentage of MTT reduction, assuming that the viability of cells treated with 1% DMSO as a negative control was 100%. Figures were built in Microsoft Excel 2010. All values are the mean ± SD of three independent experiments. Data were analyzed for statistical significance using one-way ANOVA, followed by Dunnet’s test as a post-hoc test with GraphPad Prism 5.0 software for Windows (Inc., San Diego, CA, USA).
# [2] = Scavenging of hydroxyl radical, 2-deoxyribose degradation assay; details: for % Inhibition of deoxyribose degradation, Non Site-Specific: at 300 µM (maximum solubility in phosphate buffer)
# Experimental: The inhibitory effect of bioactive compounds on deoxyribose degradation was determined by measuring the competition between deoxyribose and bioactive compounds for the hydroxyl radicals (^.OH) generated from the Fe^3+/ascorbate/EDTA/H2O2 system (referred to non-site-specific assay; the major activity measured is ^.OH scavenging) or an Fe^3+/ascorbate/H2O2 system (referred to as a site-specific assay; major activity measured is metal chelation). Both assays depend on the formation of a highly reactive hydroxyl radical, OH, by the interaction of iron ions with H2O2 through Fenton’s reaction. […] This assay was performed as previously described. Different concentrations of tested compounds were dissolved in 400 µL phosphate buffer (0.2 M, pH 7.4). Then, 50 µL of deoxyribose (60 mM), 50 µL of Na2EDTA (2 mM), 50 µL of FeCl3 (3.2 mM), 50 µL of H2O2 (60 mM) and 50 µL of ascorbic acid (2 mM) were added, and the total volume of the reaction mixture was adjusted to 1 mL with buffer. After water-bath incubation at 50 °C for 25 min, the reaction was terminated by 250 µL of trichloroacetic acid (10%, w/w). […] For site-specific hydroxyl-radical-scavenging activity, the reaction mixture was similar to the above method, except that EDTA was replaced by an equivalent volume of buffer.
# as §1, with “Figures were built in Microsoft Excel 2010.” left out
# Aβ25-35 = target: T2, Aβ25-35 (Homo sapiens, UniProt P05067); assay: Thioflavin T assay of Aβ25-35 aggregation; type: biochemical; details: for effect on Th-T fluorescence (in words): 25-100 µM; for Decrease of ThT Fluorescence: summary Table 4; for decrease of Th-T fluorescence intensity: Aβ25-35 25 µM; on Decrease of ThT Fluorescence: key: +: Weak activity; ++: Strong activity
# T2 construct: Aβ25-35 (25 µM) freshly prepared in PBS; purchased Sigma (St. Louis, MO, USA)
# Experimental: Thioflavin T (ThT), abenzothiazole salt, is used to quantify misfolded protein aggregates and amyloid peptides. ThT is a non-fluorescent dye which, when it binds to amyloid rich aggregates, produces a fluorescent signal proportional to the quantity of amyloid aggregation. Aβ25-35 (25 µM) freshly prepared in PBS (50 mM, pH = 7.4) was incubated at 37 °C with or without different concentrations (100, 50, 25 µM) of isolated compounds at 37 °C and shaken at 300 rpm for 3 h. One hundred µL of each incubated sample was transferred to a 96-well plate, and five µM ThT was added. The ThT fluorescence was measured over 180 min at 10-min intervals at emission λ at 485 nm; and excitation λ at 442 nm using FlexStation 3 Microplate Reader (Molecular Devices, LLC, Sunnyvale, CA, USA), and data were managed by SoftMax Pro® 5.4.1 software. The samples were constantly shaken every 60 sec during the incubation. 1% DMSO and different concentrations of ECCG were taken as negative and positive controls, respectively. The area under the curve (AUC) was taken as indicative of fluorescence intensity. Fluorescence of samples and ThT without Aβ25-35 (sample blank) was detected and subtracted from the final AUC to prevent any interference.
# neuro-2A cells [3] = assay: Protection against Aβ25-35-induced neurotoxicity (MTT); type: cell-based, Mouse; details: for Protection against Aβ25-35: summary Table 4; on Protection against Aβ25-35: key: +: Weak activity; ++: Strong activity
# Experimental: (§2) Neuro-2A cell line was maintained in Eagle’s Minimum Essential medium supplemented with 10% fetal bovine serum, 1% of 100× antibiotic—antimitotic agents (containing penicillin and streptomycin) in a humid atmosphere of 5% (v/v) CO2 and 95% (v/v) air at 37 °C. Neuro-2A cells were plated in 96-well cell culture plates at a density of 3 × 10^4 cells/well for H2O2 and intracellular ROS assays and 2.5 × 10^3 cells/well for the Aβ25-35-assay.
# (§3) Cell viability was determined by MTT reduction assay. Briefly, after treatment with isolated compounds, the media was replaced by fresh one after washing the cells with 100 µL PBS and 20 µL of MTT (5 mg/mL) was added to each well. After 4 h incubation at 37 °C, the state of cells was checked under microscope to confirm either cytotoxicity in H2O2 and Aβ25-35 wells or protection in positive controls and isolated compounds ones. The supernatants were aspirated carefully, and 150 µL of DMSO was added to each well to dissolve the dark blue formazan crystals. The absorbance was measured using a microplate reader at 570 nm.
# Similarly, the concentration of Aβ25-35 that decreased cell viability to about 50% was determined. […] So, the cells were incubated with different concentrations of the isolated compounds (6.25, 12.5, 25, 50 and 100 µM) and EGCG as a positive control for 3 h followed by Aβ25-35 treatment for 72 h.
# neuro-2A cells [4] = assay: Protection against H2O2-induced neurotoxicity (MTT); type: cell-based, Mouse
# Experimental: as §2, §3
# H2O2 interacts with metals in the medium, producing highly cytotoxic hydroxyl radicals that induce neurotoxicity. So, active compounds are those that can scavenge free radicals and increase the cell viability. This assay was performed as previously described with slight modifications. Briefly, the concentration of H2O2 that decreased cell viability to about 50% was determined as follows: cells were cultured in a 96-well plate and after 24 h were further incubated with different concentrations of H2O2 (50, 100, 150, 200 µM) freshly prepared from 30% stock solution. After 24 h, cell viability was determined using the MTT reduction method. H2O2 at a concentration of 150 µM had the desired cytotoxicity and was used for the next step.
# [5] = tested on: intracellular ROS in Neuro-2A cells; assay: Scavenging of intracellular reactive oxygen species (Bes-H2O2-AC, DFF fluorescence); type: cell-based, Mouse; details: summary Table 4; further: key: +: Weak activity; ++: Strong activity
# Experimental: as §2
# This assay was performed as previously described with some modifications. Briefly, Neuro-2A cells were seeded in 96-well Clear Fluorescence Black Plate (number 655090, Greiner Bio-one, Tokyo, Japan). Cells were treated with three different concentrations (25, 50, 100 µM) of the samples. After 2 h incubation, cells were subjected to oxidative stress using 600 µM of H2O2 for 30 min. The nucleus was stained by Hoechst 33342 (Dojindo, Kumamoto, Japan), and the amount of difluorofluorescein (DFF) released from the reaction of H2O2 and BES-H2O2-Ac was taken as an indication of the amount of intracellular H2O2 and ROS. Images of each well were acquired using an IN Cell Analyzer 1000 (GE Healthcare, Buckinghamshire, UK) using 360-nm (Hoechst 33342) and 480-nm (BES-H2O2-Ac) excitation filters and monitored through 460-nm and 535-nm emission filters, respectively. Developer software was used to analyze the images of Hoechst 33342 and BES-H2O2-Ac staining, and the resulting data were then applied to Spotfire Decision Site Client 8.2 software for visualizing the results.
# T1 sequence (O42275 24-633): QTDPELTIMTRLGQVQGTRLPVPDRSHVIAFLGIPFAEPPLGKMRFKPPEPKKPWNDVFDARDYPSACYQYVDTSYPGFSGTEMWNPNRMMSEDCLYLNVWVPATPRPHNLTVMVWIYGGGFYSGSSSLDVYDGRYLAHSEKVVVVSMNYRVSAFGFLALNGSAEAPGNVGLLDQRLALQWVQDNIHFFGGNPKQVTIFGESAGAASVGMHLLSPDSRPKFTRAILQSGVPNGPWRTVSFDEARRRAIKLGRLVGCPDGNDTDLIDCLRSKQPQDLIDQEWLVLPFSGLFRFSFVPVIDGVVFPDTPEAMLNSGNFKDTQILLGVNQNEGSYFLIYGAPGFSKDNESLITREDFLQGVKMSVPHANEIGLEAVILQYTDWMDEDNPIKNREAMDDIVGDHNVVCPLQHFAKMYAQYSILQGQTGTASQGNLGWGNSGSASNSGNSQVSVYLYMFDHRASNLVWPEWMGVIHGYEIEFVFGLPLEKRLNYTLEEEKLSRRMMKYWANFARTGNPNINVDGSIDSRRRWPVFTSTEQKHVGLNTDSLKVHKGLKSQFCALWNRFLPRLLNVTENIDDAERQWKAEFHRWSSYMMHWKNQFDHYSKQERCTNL
compound,measurement,setting,value
"C/C=C(/C)C(=O)O[C@@H]1[C@H](OC(C)=O)c2c(ccc3ccc(=O)oc23)OC1(C)C [Isopteryxin (4), isopteryxin]",IC50,[1],475.9 ± 1.5 µM
same,"% Inhibition of deoxyribose degradation, Non Site-Specific",[2],10 ± 2.1%
same,effect on Th-T fluorescence (in words),Aβ25-35,weak activity
same,Decrease of ThT Fluorescence,Aβ25-35,+
same,neuroprotection against Aβ25-35 (in words),neuro-2A cells [3]; at the highest concentration (100 µM),significant neuroprotection (p < 0.05)
same,Protection against Aβ25-35,neuro-2A cells [3],+
"CC(=O)O[C@@H]1c2c(ccc3ccc(=O)oc23)OC(C)(C)[C@@H]1OC(=O)[C@@]1(C)O[C@H]1C [Isoepoxypteryxin (3), isoepoxypteryxin]",IC50,[1],327 ± 3.4 µM
same,"% Inhibition of deoxyribose degradation, Non Site-Specific",[2],6 ± 1.4%
same,effect on Th-T fluorescence (in words),Aβ25-35,decreased Th-T fluorescence in a dose-dependent manner
same,Decrease of ThT Fluorescence,Aβ25-35,++
same,Protection against Aβ25-35,neuro-2A cells [3],++
kaempferol-3-O-rutinoside [Kaempferol-3-O-rutinoside (14)],neuroprotection against H2O2-induced neurotoxicity (in words),"neuro-2A cells [4]; 6.25-100 µM, H2O2 150 µM",significant (p < 0.05) increase in cell viability at 100 µM
same,Protection against H2O2,neuro-2A cells [4]; summary Table 4,+
same,IC50,"[2]; Fe3+/ascorbate/EDTA/H2O2 system, read-out: IC50 hydroxyl radical scavenging, Non Site-Specific",1030 ± 25.7 µM
same,IC50,"[2]; Fe3+/ascorbate/H2O2 system without EDTA, read-out: IC50 hydroxyl radical scavenging, Site-Specific",1540 ± 20.8 µM
same,IC50,"[2]; summary Table 4 (values of the non site-specific assay), read-out: Hydroxyl Radical Scavenging/IC50",1030 ± 25.7 µM
same,decrease of Th-T fluorescence intensity,Aβ25-35; 50 µM,12% ±3.7%
same,decrease of Th-T fluorescence intensity,Aβ25-35; 100 µM,33% ± 2.5%
same,effect on Th-T fluorescence (in words),Aβ25-35,decreased Th-T fluorescence in a dose-dependent manner
same,Decrease of ThT Fluorescence,Aβ25-35,++
same,Intracellular ROS Scavenging,[5],+
same,Protection against Aβ25-35,neuro-2A cells [3],++
